Experimental data: patent publication US20210207064A1, “COMPOUND FOR RESTORING CONTAMINATED SOIL OR CONTAMINATED WATER” (FNG RESEARCH CO., LTD., priority 2018, published 2021)

Assays:
[1] = Heavy metal removal ability test in contaminated soil around a factory (WAK-Me test kit); conditions: 1.0 wt % aqueous solution, colour comparison test kit
Procedure: The contaminated soil around the factory in the industrial complex was collected, pulverized, and meshed to prepare fine particles of soil samples.
Each 3 ml of aqueous solutions for restoring soil was added to soil samples and mixed for 5 minutes.

[2] = Heavy metal removal ability test in contaminated soil (ICP-MS), cadmium; conditions: for Cadmium (Cd) Adsorption amount: contaminated soil; for Cadmium (Cd) Adsorption rate: relative to EDTA control
How it was run: (§1)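 Sieved soil spiked with aqueous heavy metal, mixed 5 min with 3 ml of test solution, then extracted with 50 ml distilled water (20 min stirring, 1 h settling). Supernatant metal measured by ICP-MS; adsorption rate (%) expressed relative to control.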

human skin = assay: Skin irritation test of active ingredient (patch method, CTFA guidelines); type: in vivo; conditions: 24 h patch; for Test result (number of subject) (+) / Test result (number of subject) (++) / Test result (number of subject) (±) / Test result (number of subject) (−): 20 people; for Test result (number of subject) (+): (+) apparent reddening; for Test result (number of subject) (++): (++) more reddened and swollen; for Test result (number of subject) (±): (±) slightly reddish; for Test result (number of subject) (−): (−) no erythema
[3] = Heavy metal removal ability test in contaminated soil (ICP-MS), arsenic; conditions: for Arsenic (As) Adsorption amount: contaminated soil; for Arsenic (As) Adsorption rate: relative to EDTA control
How it was run: as §1

[4] = Formaldehyde (formalin) removing ability test (GC); conditions: 2.0% formaldehyde solution, 3 molar equivalents of compound, room temperature
[5] = Heavy metal removal ability test in contaminated soil (ICP-MS), nickel; conditions: for Nickel (Ni) Adsorption amount: contaminated soil; for Nickel (Ni) Adsorption rate: relative to EDTA control
How it was run: as §1

With `NCCNCCNCCN` [Trientine, Triethylenetetramine, reference compound] the “Total amount (Cu, Zn, Mn, Ni, Cd)” value [1] was ≤5 (red) ppm, the “Cadmium (Cd) Adsorption amount” value ([2]; content 0.5% aqueous solution) was 68 ppm and the “Cadmium (Cd) Adsorption rate” value ([2]; content 0.5%) was 166%. For the same compound, the “Cadmium (Cd) Adsorption amount” value ([2]; content 1.0% aqueous solution) was 75 ppm, the “Cadmium (Cd) Adsorption rate” value ([2]; content 1.0%) was 183% and the “Cadmium (Cd) Adsorption amount” value ([2]; content 2.0% aqueous solution) was 79 ppm. The “Cadmium (Cd) Adsorption rate” value ([2]; content 2.0%) was 193%, the “Test result (number of subject) (+)” value (human skin; content 0.1 wt %) was 0 and the “Test result (number of subject) (++)” value (human skin; content 0.1 wt %) was 0. The “Test result (number of subject) (±)” value (human skin; content 0.1 wt %) was 0, the “Test result (number of subject) (−)” value (human skin; content 0.1 wt %) was 20 and the Degree of irritation (human skin; content 0.1 wt %) was 0. The “Grade for skin irritation” value (human skin; content 0.1 wt %) was “I (Degree of irritation 0-0.1: Grade I (unstimulated))”, the “Test result (number of subject) (+)” value (human skin; content 0.5 wt %) was 0 and the “Test result (number of subject) (++)” value (human skin; content 0.5 wt %) was 0. For the same compound, the “Test result (number of subject) (±)” value (human skin; content 0.5 wt %) was 1, the “Test result (number of subject) (−)” value (human skin; content 0.5 wt %) was 19 and the Degree of irritation (human skin; content 0.5 wt %) was 0.05. The “Grade for skin irritation” value (human skin; content 0.5 wt %) was “I (Degree of irritation 0-0.1: Grade I (unstimulated))”, the “Test result (number of subject) (+)” value (human skin; content 1.0 wt %) was 0 and the “Test result (number of subject) (++)” value (human skin; content 1.0 wt %) was 0. The “Test result (number of subject) (±)” value (human skin; content 1.0 wt %) was 3, the “Test result (number of subject) (−)” value (human skin; content 1.0 wt %) was 17 and the Degree of irritation (human skin; content 1.0 wt %) was 0.15. The “Grade for skin irritation” value (human skin; content 1.0 wt %) was “II (Degree of irritation 0.11-0.3: Grade II (weakly stimulated))”, the “Arsenic (As) Adsorption amount” value ([3]; content 0.5% aqueous solution) was 49 ppm and the “Arsenic (As) Adsorption rate” value ([3]; content 0.5%) was 196%. The “Arsenic (As) Adsorption amount” value ([3]; content 1.0% aqueous solution) was 52 ppm, the “Arsenic (As) Adsorption rate” value ([3]; content 1.0%) was 208% and the “Arsenic (As) Adsorption amount” value ([3]; content 2.0% aqueous solution) was 59 ppm. The “Arsenic (As) Adsorption rate” value ([3]; content 2.0%) was 236%, the “Formaldehyde GC Area, 30 min” value ([4]; after 30 min) was 0.168 mAU*min and the “Formaldehyde GC Area, 180 min” value ([4]; after 180 min) was 0 mAU*min. For the same compound, the “Formaldehyde GC Area, Initial” value ([4]; initial state) was 0.305 mAU*min, the “Nickel (Ni) Adsorption amount” value ([5]; content 0.5% aqueous solution) was 102 ppm and the “Nickel (Ni) Adsorption rate” value ([5]; content 0.5%) was 208%. For the same compound, the “Nickel (Ni) Adsorption amount” value ([5]; content 1.0% aqueous solution) was 115 ppm, the “Nickel (Ni) Adsorption rate” value ([5]; content 1.0%) was 235% and the “Nickel (Ni) Adsorption amount” value ([5]; content 2.0% aqueous solution) was 131 ppm. The “Nickel (Ni) Adsorption rate” value ([5]; content 2.0%) was 267%.
